Measurements published in the kinase profiling compilation of Christmann-Franck et al. (2016).

Assays:
Test in all cases: KINOMEscan competition binding
Details in all cases: compound 10.0 µM
AKT3 (human) = AKT3 (human) (UniProt Q9Y243)
[1] = system: BRAF (human), P15056 [V600E]
BRSK2 (human) = BRSK2 (human) (UniProt Q8IWQ3)
CAMK1G (human) = CAMK1G (human) (UniProt Q96NX5)
CAMK2A (human) = CAMK2A (human) (UniProt Q9UQM7)
CDK9 (human) = CDK9 (human) (UniProt P50750)
CHUK (human) = CHUK (human) (UniProt O15111)
CLK3 (human) = CLK3 (human) (UniProt P49761)
CSNK1A1L (human) = CSNK1A1L (human) (UniProt Q8N752)
Sequence of CSNK1A1L (human) (Q8N752 whole entry, looked up): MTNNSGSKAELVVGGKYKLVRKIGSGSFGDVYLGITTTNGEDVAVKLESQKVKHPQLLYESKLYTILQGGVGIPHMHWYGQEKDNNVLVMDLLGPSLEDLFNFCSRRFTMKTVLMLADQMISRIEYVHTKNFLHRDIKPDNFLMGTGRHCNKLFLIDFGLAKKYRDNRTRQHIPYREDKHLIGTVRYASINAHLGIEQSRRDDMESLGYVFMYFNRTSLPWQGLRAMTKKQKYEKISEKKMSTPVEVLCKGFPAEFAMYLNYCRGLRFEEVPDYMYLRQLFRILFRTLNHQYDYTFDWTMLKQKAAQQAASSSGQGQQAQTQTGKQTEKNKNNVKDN

EPHB3 (human) = EPHB3 (human) (UniProt P54753)
ERBB3 (human) = ERBB3 (human) (UniProt P21860)
FGFR4 (human) = FGFR4 (human) (UniProt P22455)
[2] = system: FLT3 (human), P36888 [D835Y]
[3] = system: FLT3 (human), P36888 [N841I]
FRK (human) = FRK (human) (UniProt P42685)
GAK (human) = GAK (human) (UniProt O14976)
MAP2K2 (human) = MAP2K2 (human) (UniProt P36507)
MAP2K6 (human) = MAP2K6 (human) (UniProt P52564)
MAP2K7 (human) = MAP2K7 (human) (UniProt O14733)
MAP4K5 (human) = MAP4K5 (human) (UniProt Q9Y4K4)
Sequence of MAP4K5 (human) (Q9Y4K4 whole entry, looked up): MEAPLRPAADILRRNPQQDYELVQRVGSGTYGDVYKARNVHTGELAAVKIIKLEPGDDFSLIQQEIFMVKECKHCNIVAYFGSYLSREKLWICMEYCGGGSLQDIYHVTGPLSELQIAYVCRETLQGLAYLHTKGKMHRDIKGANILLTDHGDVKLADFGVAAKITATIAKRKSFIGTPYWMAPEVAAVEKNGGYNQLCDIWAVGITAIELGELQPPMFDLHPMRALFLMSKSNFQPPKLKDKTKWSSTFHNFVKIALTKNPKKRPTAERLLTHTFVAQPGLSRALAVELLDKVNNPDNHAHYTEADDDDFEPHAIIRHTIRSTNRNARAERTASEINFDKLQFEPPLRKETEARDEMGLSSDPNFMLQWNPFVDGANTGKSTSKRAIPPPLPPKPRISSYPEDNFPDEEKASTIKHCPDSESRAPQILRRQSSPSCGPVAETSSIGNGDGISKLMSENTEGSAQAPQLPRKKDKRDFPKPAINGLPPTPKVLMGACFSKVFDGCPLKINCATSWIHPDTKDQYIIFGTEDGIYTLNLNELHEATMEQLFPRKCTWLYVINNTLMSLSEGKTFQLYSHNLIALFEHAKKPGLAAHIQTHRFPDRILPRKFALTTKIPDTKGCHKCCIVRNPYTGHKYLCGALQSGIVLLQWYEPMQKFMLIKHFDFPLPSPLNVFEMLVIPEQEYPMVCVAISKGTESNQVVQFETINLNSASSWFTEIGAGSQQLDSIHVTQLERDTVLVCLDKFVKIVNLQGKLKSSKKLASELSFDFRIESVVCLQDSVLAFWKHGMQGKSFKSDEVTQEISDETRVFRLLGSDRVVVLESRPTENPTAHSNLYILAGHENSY

MAPK15 (human) = MAPK15 (human) (UniProt Q8TD08)
Sequence of MAPK15 (human) (Q8TD08 whole entry, looked up): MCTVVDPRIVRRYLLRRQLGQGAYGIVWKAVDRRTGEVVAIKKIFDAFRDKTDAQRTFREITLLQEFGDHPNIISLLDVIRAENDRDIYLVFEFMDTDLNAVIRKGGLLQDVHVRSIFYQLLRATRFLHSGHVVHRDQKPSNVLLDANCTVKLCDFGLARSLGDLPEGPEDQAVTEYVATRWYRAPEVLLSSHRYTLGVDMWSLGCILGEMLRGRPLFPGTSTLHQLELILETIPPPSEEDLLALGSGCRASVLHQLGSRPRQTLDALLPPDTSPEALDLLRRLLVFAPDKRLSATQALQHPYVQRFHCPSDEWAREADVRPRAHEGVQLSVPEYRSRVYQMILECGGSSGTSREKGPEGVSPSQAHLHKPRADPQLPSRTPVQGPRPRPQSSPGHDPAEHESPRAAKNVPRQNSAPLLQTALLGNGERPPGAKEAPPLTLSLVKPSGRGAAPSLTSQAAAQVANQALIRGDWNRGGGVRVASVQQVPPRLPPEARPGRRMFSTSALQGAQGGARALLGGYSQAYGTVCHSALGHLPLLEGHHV

MAPKAPK5 (human) = MAPKAPK5 (human) (UniProt Q8IW41)
MATK (human) = MATK (human) (UniProt P42679)
MET (human) = MET (human) (UniProt P08581)
MTOR (human) = MTOR (human) (UniProt P42345)
MYO3A (human) = MYO3A (human) (UniProt Q8NEV4)
NEK4 (human) = NEK4 (human) (UniProt P51957)
NEK9 (human) = NEK9 (human) (UniProt Q8TD19)
OXSR1 (human) = OXSR1 (human) (UniProt O95747)
PDGFRA (human) = PDGFRA (human) (UniProt P16234)
[4] = system: PIK3CA (human), P42336 [C420R]
PRKD2 (human) = PRKD2 (human) (UniProt Q9BZL6)
PRPF4B (human) = PRPF4B (human) (UniProt Q13523)
RPS6KA5 KD1 (human) = RPS6KA5 KD1 (human) (UniProt O75582)
SGK3 (human) = SGK3 (human) (UniProt Q96BR1)
SNRK (human) = SNRK (human) (UniProt Q9NRH2)
Sequence of SNRK (human) (Q9NRH2 whole entry, looked up): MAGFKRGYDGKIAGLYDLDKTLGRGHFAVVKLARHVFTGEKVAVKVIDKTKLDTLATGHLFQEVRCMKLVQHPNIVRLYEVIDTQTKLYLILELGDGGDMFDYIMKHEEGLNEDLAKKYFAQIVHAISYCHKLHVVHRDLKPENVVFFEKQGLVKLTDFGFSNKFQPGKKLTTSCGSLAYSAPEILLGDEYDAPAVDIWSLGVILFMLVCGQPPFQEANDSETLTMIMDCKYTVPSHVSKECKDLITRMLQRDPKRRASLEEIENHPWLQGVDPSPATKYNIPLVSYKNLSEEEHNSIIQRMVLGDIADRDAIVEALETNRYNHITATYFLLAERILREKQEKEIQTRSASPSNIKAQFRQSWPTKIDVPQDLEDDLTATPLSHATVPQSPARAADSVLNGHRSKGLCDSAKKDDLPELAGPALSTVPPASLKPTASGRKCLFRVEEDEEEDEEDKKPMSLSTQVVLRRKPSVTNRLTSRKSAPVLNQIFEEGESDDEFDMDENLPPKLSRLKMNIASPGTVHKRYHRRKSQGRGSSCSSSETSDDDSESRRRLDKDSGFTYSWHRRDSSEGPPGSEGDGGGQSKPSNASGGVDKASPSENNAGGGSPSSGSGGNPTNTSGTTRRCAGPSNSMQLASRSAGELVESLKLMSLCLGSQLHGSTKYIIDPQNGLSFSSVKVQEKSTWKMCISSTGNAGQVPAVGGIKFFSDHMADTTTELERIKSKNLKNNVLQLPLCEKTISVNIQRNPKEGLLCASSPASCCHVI

STK25 (human) = STK25 (human) (UniProt O00506)
STK33 (human) = STK33 (human) (UniProt Q9BYT3)
TESK1 (human) = TESK1 (human) (UniProt Q15569)
TRPM6 (human) = TRPM6 (human) (UniProt Q9BX84)
Sequence of TRPM6 (human) (Q9BX84 whole entry, looked up): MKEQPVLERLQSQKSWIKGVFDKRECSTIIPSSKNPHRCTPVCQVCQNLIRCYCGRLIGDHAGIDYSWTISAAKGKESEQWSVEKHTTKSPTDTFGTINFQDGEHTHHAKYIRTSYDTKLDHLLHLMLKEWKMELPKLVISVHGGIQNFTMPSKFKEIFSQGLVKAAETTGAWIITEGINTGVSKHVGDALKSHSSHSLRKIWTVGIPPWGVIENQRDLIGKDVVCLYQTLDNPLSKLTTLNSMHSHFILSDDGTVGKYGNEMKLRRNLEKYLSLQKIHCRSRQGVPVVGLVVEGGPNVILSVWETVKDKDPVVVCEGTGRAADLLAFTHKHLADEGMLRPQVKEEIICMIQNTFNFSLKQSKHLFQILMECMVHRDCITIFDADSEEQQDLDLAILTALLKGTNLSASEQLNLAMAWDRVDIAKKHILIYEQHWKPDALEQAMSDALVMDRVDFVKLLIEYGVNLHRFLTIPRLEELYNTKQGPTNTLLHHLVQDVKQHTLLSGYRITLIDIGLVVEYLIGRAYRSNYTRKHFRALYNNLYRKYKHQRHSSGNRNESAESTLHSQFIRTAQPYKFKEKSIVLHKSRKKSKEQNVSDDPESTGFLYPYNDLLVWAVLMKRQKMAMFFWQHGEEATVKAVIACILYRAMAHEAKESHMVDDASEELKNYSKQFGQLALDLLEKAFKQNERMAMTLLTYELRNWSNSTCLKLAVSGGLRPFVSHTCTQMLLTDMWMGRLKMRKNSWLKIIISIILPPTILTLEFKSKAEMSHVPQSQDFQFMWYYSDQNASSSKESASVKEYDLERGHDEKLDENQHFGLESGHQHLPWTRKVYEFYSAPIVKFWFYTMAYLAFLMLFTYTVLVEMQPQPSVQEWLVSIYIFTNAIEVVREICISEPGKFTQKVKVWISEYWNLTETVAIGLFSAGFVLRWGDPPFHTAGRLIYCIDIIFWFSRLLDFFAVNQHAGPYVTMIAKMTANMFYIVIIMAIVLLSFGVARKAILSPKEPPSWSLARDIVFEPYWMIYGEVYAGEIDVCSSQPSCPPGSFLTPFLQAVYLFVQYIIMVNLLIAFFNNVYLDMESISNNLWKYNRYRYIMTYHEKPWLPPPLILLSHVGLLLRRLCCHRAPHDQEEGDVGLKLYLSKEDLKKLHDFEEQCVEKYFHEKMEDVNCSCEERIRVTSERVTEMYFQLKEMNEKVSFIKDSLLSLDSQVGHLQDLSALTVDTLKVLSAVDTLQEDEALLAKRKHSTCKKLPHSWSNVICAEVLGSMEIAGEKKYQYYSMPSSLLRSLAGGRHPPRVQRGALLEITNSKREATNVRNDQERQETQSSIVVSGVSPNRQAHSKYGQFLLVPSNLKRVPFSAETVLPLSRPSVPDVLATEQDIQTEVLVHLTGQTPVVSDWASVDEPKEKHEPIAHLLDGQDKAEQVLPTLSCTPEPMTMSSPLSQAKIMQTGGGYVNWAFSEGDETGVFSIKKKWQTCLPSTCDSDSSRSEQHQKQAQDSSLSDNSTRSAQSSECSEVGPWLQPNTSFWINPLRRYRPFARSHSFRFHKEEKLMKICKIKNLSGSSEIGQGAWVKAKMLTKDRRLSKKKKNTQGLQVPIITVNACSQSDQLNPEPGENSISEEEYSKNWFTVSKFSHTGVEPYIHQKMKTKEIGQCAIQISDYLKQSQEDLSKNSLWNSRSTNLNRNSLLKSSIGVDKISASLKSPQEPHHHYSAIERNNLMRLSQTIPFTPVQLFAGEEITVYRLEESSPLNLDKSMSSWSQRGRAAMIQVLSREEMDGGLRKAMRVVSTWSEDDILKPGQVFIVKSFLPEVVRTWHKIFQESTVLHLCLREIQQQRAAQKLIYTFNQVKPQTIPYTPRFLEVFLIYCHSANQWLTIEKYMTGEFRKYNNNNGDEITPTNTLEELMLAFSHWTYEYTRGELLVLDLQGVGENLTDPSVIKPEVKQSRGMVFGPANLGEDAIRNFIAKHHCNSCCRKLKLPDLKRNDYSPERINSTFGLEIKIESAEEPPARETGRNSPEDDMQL

WEE2 (human) = WEE2 (human) (UniProt P0C1S8)

Sequence of AKT3 (human) (Q9Y243 whole entry, looked up): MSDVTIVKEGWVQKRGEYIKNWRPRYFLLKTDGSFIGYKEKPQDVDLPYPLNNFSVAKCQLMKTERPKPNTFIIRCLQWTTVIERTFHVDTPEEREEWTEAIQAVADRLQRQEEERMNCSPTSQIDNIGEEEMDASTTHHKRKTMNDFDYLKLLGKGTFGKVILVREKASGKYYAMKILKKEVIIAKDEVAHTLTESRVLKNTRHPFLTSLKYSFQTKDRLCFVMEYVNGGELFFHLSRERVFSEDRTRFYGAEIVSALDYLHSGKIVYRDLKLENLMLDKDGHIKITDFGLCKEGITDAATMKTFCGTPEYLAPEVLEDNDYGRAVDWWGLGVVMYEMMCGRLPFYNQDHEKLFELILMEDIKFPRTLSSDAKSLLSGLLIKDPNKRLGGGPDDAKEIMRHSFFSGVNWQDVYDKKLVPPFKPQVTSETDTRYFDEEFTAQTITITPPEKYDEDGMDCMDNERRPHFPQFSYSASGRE

## COc1ccc(-c2ccc3c(N4CCOCC4)nc(N4C[C@@H](C)O[C@@H](C)C4)nc3n2)cc1CO
AKT3 (human)
  kinase still bound, per cent of control: 97%
[1]
  kinase still bound, per cent of control: 92%
BRSK2 (human)
  kinase still bound, per cent of control: 98%
CAMK1G (human)
  kinase still bound, per cent of control: 94%
CAMK2A (human)
  kinase still bound, per cent of control: 87%
CDK9 (human)
  per cent of control: 98%
CHUK (human)
  kinase still bound, per cent of control: 72%
CLK3 (human)
  kinase still bound, per cent of control: 90%
CSNK1A1L (human)
  kinase still bound, per cent of control: 97%
EPHB3 (human)
  kinase still bound, per cent of control: 98%
ERBB3 (human)
  kinase still bound, per cent of control: 85%
FGFR4 (human)
  kinase still bound, per cent of control: 100%
[2]
  kinase still bound, per cent of control: 86%
[3]
  kinase still bound, per cent of control: 82%
FRK (human)
  kinase still bound, per cent of control: 100%
GAK (human)
  kinase still bound, per cent of control: 95%
MAP2K2 (human)
  kinase still bound, per cent of control: 92%
MAP2K6 (human)
  kinase still bound, per cent of control: 83%
MAP2K7 (human)
  kinase still bound, per cent of control: 100%
MAP4K5 (human)
  kinase still bound, per cent of control: 96%
MAPK15 (human)
  kinase still bound, per cent of control: 96%
MAPKAPK5 (human)
  kinase still bound, per cent of control: 77%
MATK (human)
  kinase still bound, per cent of control: 78%
MET (human)
  kinase still bound, per cent of control: 88%
MTOR (human)
  kinase still bound, per cent of control: 0%
MYO3A (human)
  kinase still bound, per cent of control: 97%
NEK4 (human)
  kinase still bound, per cent of control: 76%
NEK9 (human)
  kinase still bound, per cent of control: 89%
OXSR1 (human)
  kinase still bound, per cent of control: 72%
PDGFRA (human)
  kinase still bound, per cent of control: 94%
[4]
  kinase still bound, per cent of control: 2.3%
PRKD2 (human)
  kinase still bound, per cent of control: 96%
PRPF4B (human)
  kinase still bound, per cent of control: 100%
RPS6KA5 KD1 (human)
  kinase still bound, per cent of control: 100%
SGK3 (human)
  kinase still bound, per cent of control: 100%
SNRK (human)
  kinase still bound, per cent of control: 48%
STK25 (human)
  kinase still bound, per cent of control: 100%
STK33 (human)
  kinase still bound, per cent of control: 95%
TESK1 (human)
  kinase still bound, per cent of control: 98%
TRPM6 (human)
  kinase still bound, per cent of control: 50%
WEE2 (human)
  kinase still bound, per cent of control: 100%
